Measured values from patent US8916702B2 (priority 2012, dated 2014).

tested on: HCV pseudoparticles (genotype 1a HCV E1 and E2 envelope, H77C isolate); assay: microbe, parasite or virus in culture; assay type: cell-based; settings: Hepatitis C virus, Huh-7, 48 h, HCV pseudoparticle infection of Huh7 cells, luciferase 2 days after infection; average of duplicates

| SMILES | EC50 [pM] |
| --- | --- |
| COC(=O)[C@H](CNC(=O)C(=O)NC1(CC(C)C)CC1)NC(=O)c1ccc(Nc2nc(NC3(c4ccc(Cl)cc4)CC3)nc(OCC(F)(F)F)n2)cc1 [Compound 1058] | 1150 |
| COc1ccc(CNC(=O)C(=O)NC[C@H](NC(=O)c2ccc(Nc3nc(NC4(c5ccc(Cl)cc5)CC4)nc(OCC(F)(F)F)n3)cc2)C(=O)O)cc1 [Compound 1167] | 1320 |

same assay, conditions: Hepatitis C virus, Huh-7, 48 h, HCV pseudoparticles (genotype 1a, H77C) in Huh7 cells; average of duplicate; luciferase 2 days after infection

| SMILES | EC50 [pM] |
| --- | --- |
| CC(C)(CNC(=O)C(=O)NO)CNC(=O)c1ccc(Nc2nc(NC3(c4ccc(Cl)cc4)CC3)nc(OCC(F)(F)F)n2)cc1 [Compound 3074] | 54 |
| COC(=O)[C@H](CNC(=O)C(=O)Nc1ccc(-n2ccnc2C)cc1)NC(=O)c1ccc(Nc2nc(NC3(c4ccc(Cl)cc4)CC3)nc(OCC(F)(F)F)n2)cc1 [Compound 3203] | 5470 |
| O=C(NCCCCNC(=O)c1ccc(Nc2nc(NC3(c4ccc(Cl)cc4)CC3)nc(OCC(F)(F)F)n2)cc1)C(=O)Nc1ccc(F)cc1F [Compound 3397] | 82 |

same assay, conditions: Hepatitis C virus, Huh-7, 48 h, HCV pseudoparticles, Huh7 cells, luciferase 2 days after infection; average of duplicates

| SMILES | EC50 [pM] |
| --- | --- |
| Cc1ccc(NC(=O)C(=O)NCC(C)(C)CNC(=O)c2ccc(Nc3nc(NC4(c5ccc(Cl)cc5)CC4)nc(OCc4ccc(F)cc4)n3)cc2)cc1 [Compound 3845] | 22 |

same assay, conditions: Hepatitis C virus, Huh-7, 48 h, read-out: Activity (EC50 class), HCV pseudoparticle infection of Huh7 cells, luciferase 2 days after infection; EC50 expressed as class A/B

| SMILES | EC50 [pM] |
| --- | --- |
| CN(C)c1ccc(NC(=O)C(=O)NCC(C)(C)CNC(=O)c2ccc(Nc3nc(NC4(c5ccc(Cl)cc5)CC4)nc(OCC(F)(F)F)n3)cc2)cc1 [Compound 1602] | 10 to 10000 |
| CC(C)(CNC(=O)C(=O)Nc1ccc(-c2nn[nH]n2)cc1)CNC(=O)c1ccc(Nc2nc(NC3(c4ccc(Cl)cc4)CC3)nc(OCC(F)(F)F)n2)cc1 [Compound 1495] | 10 to 10000 |
| O=C(NCC[C@@H](NC(=O)c1ccc(Nc2nc(NC3(c4ccc(Cl)cc4)CC3)nc(OCC(F)(F)F)n2)cc1)C(=O)O)C(=O)Nc1ccccc1-c1ccccc1 [Compound 1532] | 10 to 10000 |
| COC(=O)[C@H](CCNC(=O)C(=O)Nc1ccc(OC)cc1)NC(=O)c1ccc(Nc2nc(NC3(c4ccc(Cl)cc4)CC3)nc(OCC(F)(F)F)n2)cc1 [Compound 1232] | 10 to 10000 |
| CC(C)(CNC(=O)C(=O)Nc1ccc(-c2cscn2)cc1)CNC(=O)c1ccc(Nc2nc(NC3(c4ccc(Cl)cc4)CC3)nc(OCC(F)(F)F)n2)cc1 [Compound 1595] | 10 to 10000 |
| COC(=O)[C@H](CNC(=O)C(=O)NC1CCCCCCC1)NC(=O)c1ccc(Nc2nc(NC3(c4ccc(Cl)cc4)CC3)nc(OCC(F)(F)F)n2)cc1 [Compound 1068] | 10 to 10000 |
| O=C(NCc1ccc(F)cc1)C(=O)NC[C@H](NC(=O)c1ccc(Nc2nc(NC3(c4ccc(Cl)cc4)CC3)nc(OCC(F)(F)F)n2)cc1)C(=O)O [Compound 1166] | 10 to 10000 |
| O=C(NCC[C@H](NC(=O)c1ccc(Nc2nc(NC3(c4ccc(Cl)cc4)CC3)nc(OCC(F)(F)F)n2)cc1)C(=O)O)C(=O)Nc1ccc(C(F)(F)F)cc1 [Compound 1275] | 10 to 10000 |
| O=C(NCC[C@H](NC(=O)c1ccc(Nc2nc(NC3(c4ccc(Cl)cc4)CC3)nc(OCC(F)(F)F)n2)cc1)C(=O)O)C(=O)Nc1ccccc1F [Compound 1273] | 10 to 10000 |
| COC(=O)[C@H](CNC(=O)C(=O)NC1(CC(C)C)CC1)NC(=O)c1ccc(Nc2nc(NC3(c4ccc(Cl)cc4)CC3)nc(OCC(F)(F)F)n2)cc1 [Compound 1058] | 10 to 10000 |
| COc1ccc(CNC(=O)C(=O)NC[C@H](NC(=O)c2ccc(Nc3nc(NC4(c5ccc(Cl)cc5)CC4)nc(OCC(F)(F)F)n3)cc2)C(=O)O)cc1 [Compound 1167] | 10 to 10000 |
| COC(=O)[C@H](CCNC(=O)C(=O)Nc1cccnc1OC)NC(=O)c1ccc(Nc2nc(NC3(c4ccc(Cl)cc4)CC3)nc(OCC(F)(F)F)n2)cc1 [Compound 1216] | 10 to 10000 |
| COC(=O)[C@H](CNC(=O)C(=O)NCc1ccc(OC)cc1OC)NC(=O)c1ccc(Nc2nc(NC3(c4ccc(Cl)cc4)CC3)nc(OCC(F)(F)F)n2)cc1 [Compound 1137] | 10 to 10000 |
| O=C(NCC[C@H](NC(=O)c1ccc(Nc2nc(NC3(c4ccc(Cl)cc4)CC3)nc(OCC(F)(F)F)n2)cc1)C(=O)O)C(=O)NC1CCCCCC1 [Compound 1122] | 10 to 10000 |
| CC1CCC(NC(=O)C(=O)NC[C@H](NC(=O)c2ccc(Nc3nc(NC4(c5ccc(Cl)cc5)CC4)nc(OCC(F)(F)F)n3)cc2)C(=O)O)CC1 (stereo partly drawn) [Compound 1092] | 10 to 10000 |
| COC(=O)[C@H](CNC(=O)C(=O)Nc1ccc(F)cc1)NC(=O)c1ccc(Nc2nc(NC3(c4ccc(Cl)cc4)CC3)nc(OCC(F)(F)F)n2)cc1 [Compound 1252] | 10 to 10000 |
| O=C(NCC1CCc2ccccc21)C(=O)NC[C@H](NC(=O)c1ccc(Nc2nc(NC3(c4ccc(Cl)cc4)CC3)nc(OCC(F)(F)F)n2)cc1)C(=O)O (stereo partly drawn) [Compound 1414] | 10 to 10000 |

same assay, conditions: Hepatitis C virus, Huh-7, 48 h, read-out: Activity (EC50 class), HCV pseudoparticles, Huh7 cells, luciferase 2 days after infection; average of duplicates

| SMILES | EC50 [pM] |
| --- | --- |
| COc1cc(NC(=O)C(=O)NCC(C)(C)CNC(=O)c2ccc(Nc3nc(NC4(c5ccc(Cl)cc5)CC4)nc(OCC(F)(F)F)n3)cc2)ccc1-c1ccccc1 [Compound 3679] | 10 to 10000 |
| COC(=O)[C@H](CCNC(=O)C(=O)Nc1cccc(CCC(N)O)c1)NC(=O)c1ccc(Nc2nc(NC3(c4ccc(Cl)cc4)CC3)nc(OCC(F)(F)F)n2)cc1 (stereo partly drawn) [Compound 3609] | 10 to 10000 |
| COC(=O)[C@H](CCNC(=O)C(=O)Nc1cccc(-c2cccnc2)c1)NC(=O)c1ccc(Nc2nc(NC3(c4ccc(Cl)cc4)CC3)nc(OCC(F)(F)F)n2)cc1 [Compound 3604] | 10 to 10000 |
| COc1cccc2sc(NC(=O)C(=O)NCC(C)(C)CNC(=O)c3ccc(Nc4nc(NC5(c6ccc(Cl)cc6)CC5)nc(OCC(F)(F)F)n4)cc3)nc12 [Compound 3813] | 10 to 10000 |
| COC(=O)[C@H](CNC(=O)C(=O)Nc1cccc(-n2ccnc2)c1)NC(=O)c1ccc(Nc2nc(NC3(c4ccc(Cl)cc4)CC3)nc(OCC(F)(F)F)n2)cc1 [Compound 3734] | 10 to 10000 |
| CC(C)(CNC(=O)C(=O)Nc1nc2cnccc2s1)CNC(=O)c1ccc(Nc2nc(NC3(c4ccc(Cl)cc4)CC3)nc(OCC(F)(F)F)n2)cc1 [Compound 3808] | 10 to 10000 |
| Cc1ccc(NC(=O)C(=O)NCC(C)(C)CNC(=O)c2ccc(Nc3nc(NC4(c5ccc(Cl)cc5)CC4)nc(OCc4ccc(F)cc4)n3)cc2)cc1 [Compound 3845] | 10 to 10000 |
| CC(C)(CNC(=O)C(=O)Nc1ccc(-n2cccn2)cc1)CNC(=O)c1ccc(Nc2nc(NC3(c4ccc(Cl)cc4)CC3)nc(OCC(F)(F)F)n2)cc1 [Compound 3795] | 10 to 10000 |

same assay, conditions: Hepatitis C virus, Huh-7, read-out: Activity (EC50 class), HCV pseudoparticles (genotype 1a, H77C) in Huh7 cells; EC50 expressed as class A/B

| SMILES | EC50 [pM] |
| --- | --- |
| COC(=O)[C@H](CNC(=O)C(=O)Nc1ccc(-c2ccc(C#N)cc2)cc1)NC(=O)c1ccc(Nc2nc(NC3(c4ccc(Cl)cc4)CC3)nc(OCC(F)(F)F)n2)cc1 [Compound 3103] | 10 to 10000 |
| COC(=O)[C@H](CNC(=O)C(=O)Nc1ccc(Oc2ccccc2)cc1)NC(=O)c1ccc(Nc2nc(NC3(c4ccc(Cl)cc4)CC3)nc(OCC(F)(F)F)n2)cc1 [Compound 3082] | 10 to 10000 |
| O=C(NC[C@H](NC(=O)c1ccc(Nc2nc(NC3(c4ccc(Cl)cc4)CC3)nc(OCC(F)(F)F)n2)cc1)C(=O)O)C(=O)Nc1ccc(Cn2ccnc2)cc1 [Compound 3285] | 10 to 10000 |
| CC(C)(CNC(=O)C(=O)NO)CNC(=O)c1ccc(Nc2nc(NC3(c4ccc(Cl)cc4)CC3)nc(OCC(F)(F)F)n2)cc1 [Compound 3074] | 10 to 10000 |
| CCOCCOc1ccc(NC(=O)C(=O)NC[C@H](NC(=O)c2ccc(Nc3nc(NC4(c5ccc(Cl)cc5)CC4)nc(OCC(F)(F)F)n3)cc2)C(=O)O)cc1 [Compound 3277] | 10 to 10000 |
| Cc1nccn1Cc1ccc(NC(=O)C(=O)NC[C@H](NC(=O)c2ccc(Nc3nc(NC4(c5ccc(Cl)cc5)CC4)nc(OCC(F)(F)F)n3)cc2)C(=O)O)cc1 [Compound 3287] | 10 to 10000 |
| Cc1ccc(NC(=O)C(=O)NCCNC(=O)c2ccc(Nc3nc(NC4(c5ccc(Cl)cc5)CC4)nc(OCC(F)(F)F)n3)cc2)cc1 [Compound 3371] | 10 to 10000 |
| COC(=O)/C(CCNC(=O)C(=O)Nc1ccc(N)nc1)=N\C(=O)c1ccc(Nc2nc(NC3(c4ccc(Cl)cc4)CC3)nc(OCC(F)(F)F)n2)cc1 [Compound 3587] | 10 to 10000 |
| COC(=O)[C@H](CNC(=O)C(=O)Nc1ccc(-n2ccnc2C)cc1)NC(=O)c1ccc(Nc2nc(NC3(c4ccc(Cl)cc4)CC3)nc(OCC(F)(F)F)n2)cc1 [Compound 3203] | 10 to 10000 |
| CC(C)(CNC(=O)C(=O)Nc1ccc(F)cc1Cl)CNC(=O)c1ccc(Nc2nc(NC3(c4ccc(Cl)cc4)CC3)nc(OCC(F)(F)F)n2)cc1 [Compound 3405] | 10 to 10000 |
| O=C(N[C@H](CCNC(=O)c1ccc(Nc2nc(NC3(c4ccc(Cl)cc4)CC3)nc(OCC(F)(F)F)n2)cc1)C(=O)O)C(=O)N1CCCCC1 [Compound 3504] | 10 to 10000 |
| O=C(Nc1cc(F)cc(F)c1)C(=O)N[C@H](CCNC(=O)c1ccc(Nc2nc(NC3(c4ccc(Cl)cc4)CC3)nc(OCC(F)(F)F)n2)cc1)C(=O)O [Compound 3493] | 10 to 10000 |
| Cc1nnnn1-c1cc(Nc2nc(NC3(c4ccc(Cl)cc4)CC3)nc(OCC(F)(F)F)n2)ccc1C(=O)NCC(C)(C)CNC(=O)C(=O)Nc1cccc(F)c1 [Compound 3517] | 10 to 10000 |
| CC(C)(CNC(=O)C(=O)NCc1ccc(C(=N)N)cc1)CNC(=O)c1ccc(Nc2nc(NC3(c4ccc(Cl)cc4)CC3)nc(OCC(F)(F)F)n2)cc1 [Compound 3043] | 10 to 10000 |
| COC(=O)[C@H](CNC(=O)C(=O)Nc1ccc(-c2nc(OC)cc(OC)n2)cc1)NC(=O)c1ccc(Nc2nc(NC3(c4ccc(Cl)cc4)CC3)nc(OCC(F)(F)F)n2)cc1 [Compound 3185] | 10 to 10000 |
| O=C(NCc1ccc(F)cc1)C(=O)N(CCO)CCCNC(=O)c1ccc(Nc2nc(NC3(c4ccc(Cl)cc4)CC3)nc(OCC(F)(F)F)n2)cc1 [Compound 3502] | 10 to 10000 |
| Cc1ccc(NC(=O)C(=O)NCC(C)CNC(=O)c2ccc(Nc3nc(NC4(c5ccc(Cl)cc5)CC4)nc(OCC(F)(F)F)n3)cc2)cc1 (stereo not drawn) [Compound 3353] | 10 to 10000 |
| CC(C)(CNC(=O)C(=O)Nc1ccc(F)cc1F)CNC(=O)c1ccc(Nc2nc(NC3(c4ccc(Cl)cc4)CC3)nc(OCC(F)(F)F)n2)cc1F [Compound 3555] | 10 to 10000 |
| COC(=O)[C@H](CCNC(=O)C(=O)Nc1ccc(-c2ccc(C)cc2)cc1)NC(=O)c1ccc(Nc2nc(NC3(c4ccc(Cl)cc4)CC3)nc(OCC(F)(F)F)n2)cc1 [Compound 3305] | 10 to 10000 |
| Cc1cc(C)n(-c2ccc(NC(=O)C(=O)NCC[C@H](NC(=O)c3ccc(Nc4nc(NC5(c6ccc(Cl)cc6)CC5)nc(OCC(F)(F)F)n4)cc3)C(=O)O)cc2)n1 [Compound 3238] | 10 to 10000 |
| CN(CCCN(C)C(=O)c1ccc(Nc2nc(NC3(c4ccc(Cl)cc4)CC3)nc(OCC(F)(F)F)n2)cc1)C(=O)C(=O)NC1CCCCC1 [Compound 3429] | 10 to 10000 |
| O=C(NCCCCNC(=O)c1ccc(Nc2nc(NC3(c4ccc(Cl)cc4)CC3)nc(OCC(F)(F)F)n2)cc1)C(=O)Nc1cc(F)cc(F)c1 [Compound 3396] | 10 to 10000 |
| O=C(NCCCCNC(=O)c1ccc(Nc2nc(NC3(c4ccc(Cl)cc4)CC3)nc(OCC(F)(F)F)n2)cc1)C(=O)Nc1ccc(F)cc1F [Compound 3397] | 10 to 10000 |
